Legend:
Experiment in all cases: KiNativ chemical proteomics profiling in HeLa and PC3 cell lysates
[1] = target: T1, selected panels of kinases in HeLa and PC3 cell lysates (Homo sapiens, UniProt O14936); type: binding; details: 10 uM; proteome PC3; peptide ETGQQFAVkIVDVAK; labeling site Lys1
T1 construct: endogenous in cells; host or cells: HeLa and PC3 cell lysates

[2] = target: T2, selected panels of kinases in HeLa and PC3 cell lysates (Homo sapiens, UniProt P00533); type: binding; details: 10 uM, proteome PC3
T2 construct: endogenous in cells; host or cells: HeLa and PC3 cell lysates

[3] = target: T3, selected panels of kinases in HeLa and PC3 cell lysates (Homo sapiens, UniProt P08581); type: binding; details: 10 uM, proteome PC3, labeling site Activation Loop
T3 construct: endogenous in cells; host or cells: HeLa and PC3 cell lysates

[4] = target: T4, selected panels of kinases in HeLa and PC3 cell lysates (Homo sapiens, UniProt P48729); type: binding; details: 10 uM; proteome PC3; peptide DIk[…]; labeling site Lys2
T4 construct: endogenous in cells; host or cells: HeLa and PC3 cell lysates

[5] = target: T5, selected panels of kinases in HeLa and PC3 cell lysates (Homo sapiens, UniProt P51812); type: binding; details: 10 uM
T5 construct: endogenous in cells; host or cells: HeLa and PC3 cell lysates

[6] = target: T6, selected panels of kinases in HeLa and PC3 cell lysates (Homo sapiens, UniProt P53350); type: binding; details: 10 uM; PLK1; peptide DLk[…]; proteome HEL; labeling site Lys2
T6 construct: endogenous in cells; host or cells: HeLa and PC3 cell lysates

[7] = target: T7, selected panels of kinases in HeLa and PC3 cell lysates (Homo sapiens, UniProt Q09013); type: binding; details: 10 uM; proteome HEL; peptide DIkPDNILLDR; labeling site Lys2
T7 construct: endogenous in cells; host or cells: HeLa and PC3 cell lysates

[8] = target: T8, selected panels of kinases in HeLa and PC3 cell lysates (Homo sapiens, UniProt Q13233); type: binding; details: 10 uM; proteome HEL; peptide DVk[…]; labeling site Lys2
T8 construct: endogenous in cells; host or cells: HeLa and PC3 cell lysates

[9] = target: T9, selected panels of kinases in HeLa and PC3 cell lysates (Homo sapiens, UniProt Q15418); type: binding; details: 10 uM; RSK1 domain1; peptide LTDFGLSkEAIDHEK; proteome HEL; labeling site Activation Loop
T9 construct: endogenous in cells; host or cells: HeLa and PC3 cell lysates

[10] = target: T10, selected panels of kinases in HeLa and PC3 cell lysates (Homo sapiens, UniProt Q53H12); type: binding; details: 10 uM; proteome PC3; peptide […]kGK; labeling site ATP
T10 construct: endogenous in cells; host or cells: HeLa and PC3 cell lysates

[11] = target: T11, selected panels of kinases in HeLa and PC3 cell lysates (Homo sapiens, UniProt Q8TBX8); type: binding; details: 10 uM, PIP4K2C, labeling site ATP
T11 construct: endogenous in cells; host or cells: HeLa and PC3 cell lysates
T11 sequence (Q8TBX8 1-421): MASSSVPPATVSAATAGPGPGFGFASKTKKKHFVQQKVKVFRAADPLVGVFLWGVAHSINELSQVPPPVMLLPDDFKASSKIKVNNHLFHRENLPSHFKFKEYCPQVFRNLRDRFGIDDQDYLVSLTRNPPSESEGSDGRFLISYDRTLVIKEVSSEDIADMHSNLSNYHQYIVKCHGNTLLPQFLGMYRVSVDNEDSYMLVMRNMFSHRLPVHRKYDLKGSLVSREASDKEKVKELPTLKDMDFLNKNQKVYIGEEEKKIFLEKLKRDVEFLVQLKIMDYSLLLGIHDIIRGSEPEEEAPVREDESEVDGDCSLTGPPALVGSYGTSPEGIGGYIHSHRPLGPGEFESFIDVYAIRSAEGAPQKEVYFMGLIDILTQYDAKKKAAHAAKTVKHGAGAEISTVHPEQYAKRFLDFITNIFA

[12] = target: T12, selected panels of kinases in HeLa and PC3 cell lysates (Homo sapiens, UniProt Q92918); type: binding; details: 10 uM; proteome HEL; peptide […]kMVK; labeling site Lys1
T12 construct: endogenous in cells; host or cells: HeLa and PC3 cell lysates

[13] = target: T13, selected panels of kinases in HeLa and PC3 cell lysates (Homo sapiens, UniProt Q9H2G2); type: binding; details: 10 uM, SLK
T13 construct: endogenous in cells; host or cells: HeLa and PC3 cell lysates

[14] = test system: selected panels of kinases in HeLa and PC3 cell lysates; type: binding, human; details: 10 uM; for % Inhibition PI4KA,PI4KAP2: peptide SGTPMQSAAkAPYLAK, labeling site ATP; for % Inhibiton, MAP3K2,MAP3K3: peptide DIkGANILR; for % Inhibiton, IKKe,TBK1: peptide DIkPGNIMR; for % Inhibiton, JNK1,JNK2,JNK3: peptide DLkPSNIVVK; for % Inhibiton, MAP2K1,MAP2K2: peptide DVkPSNILVNSR
[15] = peptide DLk[…], proteome PC3, labeling site Lys2
[16] = peptide DIk[…], proteome HEL, labeling site Lys2
[17] = peptide DIk[…], proteome PC3, labeling site Lys2
[18] = proteome HEL, labeling site Lys2
[19] = proteome HEL, peptide DLk[…], labeling site Lys2
[20] = proteome PC3, labeling site Lys2
[21] = proteome PC3, peptide DIk[…], labeling site Lys2
[22] = proteome PC3, peptide DLk[…], labeling site Lys2

T5 sequence (P51812 whole entry): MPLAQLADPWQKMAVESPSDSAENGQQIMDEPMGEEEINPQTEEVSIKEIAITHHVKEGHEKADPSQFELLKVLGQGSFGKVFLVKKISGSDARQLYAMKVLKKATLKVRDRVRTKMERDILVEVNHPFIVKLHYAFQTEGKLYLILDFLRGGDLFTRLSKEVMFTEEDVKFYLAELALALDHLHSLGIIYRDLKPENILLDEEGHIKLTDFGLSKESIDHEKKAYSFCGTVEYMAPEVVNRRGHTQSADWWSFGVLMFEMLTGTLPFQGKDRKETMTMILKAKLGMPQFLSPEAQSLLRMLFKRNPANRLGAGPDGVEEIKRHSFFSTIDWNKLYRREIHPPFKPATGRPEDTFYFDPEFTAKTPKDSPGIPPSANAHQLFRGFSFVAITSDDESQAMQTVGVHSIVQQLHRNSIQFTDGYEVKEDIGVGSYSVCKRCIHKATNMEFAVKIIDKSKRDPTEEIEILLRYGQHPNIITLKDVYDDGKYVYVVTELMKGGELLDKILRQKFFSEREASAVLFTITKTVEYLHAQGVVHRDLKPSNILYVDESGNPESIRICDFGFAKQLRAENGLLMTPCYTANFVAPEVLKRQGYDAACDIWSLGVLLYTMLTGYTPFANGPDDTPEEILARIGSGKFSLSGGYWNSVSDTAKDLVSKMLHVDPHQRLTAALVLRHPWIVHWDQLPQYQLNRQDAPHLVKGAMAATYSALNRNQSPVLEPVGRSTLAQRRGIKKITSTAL
T13 sequence (Q9H2G2 whole entry): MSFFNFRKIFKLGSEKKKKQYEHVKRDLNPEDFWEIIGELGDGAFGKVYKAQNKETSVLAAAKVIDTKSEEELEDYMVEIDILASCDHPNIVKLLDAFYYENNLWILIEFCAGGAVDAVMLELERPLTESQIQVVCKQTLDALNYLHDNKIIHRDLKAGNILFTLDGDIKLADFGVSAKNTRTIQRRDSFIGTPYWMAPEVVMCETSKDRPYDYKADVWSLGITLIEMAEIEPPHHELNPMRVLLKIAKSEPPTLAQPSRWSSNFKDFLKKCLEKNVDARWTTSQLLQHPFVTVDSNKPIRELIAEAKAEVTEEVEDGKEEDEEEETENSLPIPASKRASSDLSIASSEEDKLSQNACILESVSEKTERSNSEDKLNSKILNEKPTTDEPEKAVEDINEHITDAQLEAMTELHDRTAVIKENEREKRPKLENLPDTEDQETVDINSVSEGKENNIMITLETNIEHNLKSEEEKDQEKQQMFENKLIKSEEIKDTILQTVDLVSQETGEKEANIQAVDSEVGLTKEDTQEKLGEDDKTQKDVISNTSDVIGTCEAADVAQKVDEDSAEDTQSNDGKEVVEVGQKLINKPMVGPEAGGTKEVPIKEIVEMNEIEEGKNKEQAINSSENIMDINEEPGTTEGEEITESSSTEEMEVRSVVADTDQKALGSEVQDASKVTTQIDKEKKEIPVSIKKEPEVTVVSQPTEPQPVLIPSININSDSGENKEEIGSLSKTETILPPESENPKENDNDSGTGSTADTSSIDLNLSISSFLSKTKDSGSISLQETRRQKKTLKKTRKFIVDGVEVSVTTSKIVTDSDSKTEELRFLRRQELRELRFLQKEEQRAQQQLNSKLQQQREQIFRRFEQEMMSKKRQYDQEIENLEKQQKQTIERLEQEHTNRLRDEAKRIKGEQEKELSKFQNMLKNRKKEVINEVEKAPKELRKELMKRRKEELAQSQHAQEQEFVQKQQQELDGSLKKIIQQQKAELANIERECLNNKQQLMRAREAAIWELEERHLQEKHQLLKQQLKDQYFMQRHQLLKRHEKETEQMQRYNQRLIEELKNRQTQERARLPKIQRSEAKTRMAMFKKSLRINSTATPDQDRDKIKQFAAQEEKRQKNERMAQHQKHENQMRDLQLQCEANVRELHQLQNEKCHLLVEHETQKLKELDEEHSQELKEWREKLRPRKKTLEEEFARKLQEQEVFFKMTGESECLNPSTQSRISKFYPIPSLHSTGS
T2 sequence (P00533 25-1210): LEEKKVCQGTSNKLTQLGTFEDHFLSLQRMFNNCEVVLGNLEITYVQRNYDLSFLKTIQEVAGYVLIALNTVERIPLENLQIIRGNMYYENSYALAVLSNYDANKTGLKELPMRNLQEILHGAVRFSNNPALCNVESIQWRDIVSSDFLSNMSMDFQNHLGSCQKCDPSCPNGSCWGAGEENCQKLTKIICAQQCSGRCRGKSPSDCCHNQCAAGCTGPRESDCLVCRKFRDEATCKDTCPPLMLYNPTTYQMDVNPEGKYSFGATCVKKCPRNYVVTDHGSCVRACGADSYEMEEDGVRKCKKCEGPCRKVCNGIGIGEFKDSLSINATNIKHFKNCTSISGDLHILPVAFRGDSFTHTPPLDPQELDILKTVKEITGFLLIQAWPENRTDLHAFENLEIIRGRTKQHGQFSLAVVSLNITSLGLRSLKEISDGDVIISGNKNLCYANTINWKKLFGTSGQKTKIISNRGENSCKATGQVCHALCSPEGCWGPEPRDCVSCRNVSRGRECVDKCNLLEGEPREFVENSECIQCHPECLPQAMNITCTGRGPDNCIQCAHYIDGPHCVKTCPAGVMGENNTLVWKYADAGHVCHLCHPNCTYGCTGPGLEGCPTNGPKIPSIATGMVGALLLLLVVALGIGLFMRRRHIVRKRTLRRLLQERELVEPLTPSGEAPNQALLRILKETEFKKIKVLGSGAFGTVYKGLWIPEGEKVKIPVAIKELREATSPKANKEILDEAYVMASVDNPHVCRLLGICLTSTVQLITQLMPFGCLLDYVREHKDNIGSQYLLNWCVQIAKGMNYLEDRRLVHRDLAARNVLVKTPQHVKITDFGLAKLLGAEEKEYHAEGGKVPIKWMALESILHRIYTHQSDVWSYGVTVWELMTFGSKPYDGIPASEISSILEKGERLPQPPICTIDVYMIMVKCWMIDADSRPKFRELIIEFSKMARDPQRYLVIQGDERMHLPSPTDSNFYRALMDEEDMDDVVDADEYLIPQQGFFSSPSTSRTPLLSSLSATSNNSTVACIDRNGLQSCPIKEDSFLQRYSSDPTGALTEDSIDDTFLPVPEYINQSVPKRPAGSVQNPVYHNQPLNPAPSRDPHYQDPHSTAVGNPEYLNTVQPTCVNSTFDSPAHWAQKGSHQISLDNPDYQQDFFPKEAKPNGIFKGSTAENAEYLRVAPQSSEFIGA
T3 sequence (P08581 25-1390): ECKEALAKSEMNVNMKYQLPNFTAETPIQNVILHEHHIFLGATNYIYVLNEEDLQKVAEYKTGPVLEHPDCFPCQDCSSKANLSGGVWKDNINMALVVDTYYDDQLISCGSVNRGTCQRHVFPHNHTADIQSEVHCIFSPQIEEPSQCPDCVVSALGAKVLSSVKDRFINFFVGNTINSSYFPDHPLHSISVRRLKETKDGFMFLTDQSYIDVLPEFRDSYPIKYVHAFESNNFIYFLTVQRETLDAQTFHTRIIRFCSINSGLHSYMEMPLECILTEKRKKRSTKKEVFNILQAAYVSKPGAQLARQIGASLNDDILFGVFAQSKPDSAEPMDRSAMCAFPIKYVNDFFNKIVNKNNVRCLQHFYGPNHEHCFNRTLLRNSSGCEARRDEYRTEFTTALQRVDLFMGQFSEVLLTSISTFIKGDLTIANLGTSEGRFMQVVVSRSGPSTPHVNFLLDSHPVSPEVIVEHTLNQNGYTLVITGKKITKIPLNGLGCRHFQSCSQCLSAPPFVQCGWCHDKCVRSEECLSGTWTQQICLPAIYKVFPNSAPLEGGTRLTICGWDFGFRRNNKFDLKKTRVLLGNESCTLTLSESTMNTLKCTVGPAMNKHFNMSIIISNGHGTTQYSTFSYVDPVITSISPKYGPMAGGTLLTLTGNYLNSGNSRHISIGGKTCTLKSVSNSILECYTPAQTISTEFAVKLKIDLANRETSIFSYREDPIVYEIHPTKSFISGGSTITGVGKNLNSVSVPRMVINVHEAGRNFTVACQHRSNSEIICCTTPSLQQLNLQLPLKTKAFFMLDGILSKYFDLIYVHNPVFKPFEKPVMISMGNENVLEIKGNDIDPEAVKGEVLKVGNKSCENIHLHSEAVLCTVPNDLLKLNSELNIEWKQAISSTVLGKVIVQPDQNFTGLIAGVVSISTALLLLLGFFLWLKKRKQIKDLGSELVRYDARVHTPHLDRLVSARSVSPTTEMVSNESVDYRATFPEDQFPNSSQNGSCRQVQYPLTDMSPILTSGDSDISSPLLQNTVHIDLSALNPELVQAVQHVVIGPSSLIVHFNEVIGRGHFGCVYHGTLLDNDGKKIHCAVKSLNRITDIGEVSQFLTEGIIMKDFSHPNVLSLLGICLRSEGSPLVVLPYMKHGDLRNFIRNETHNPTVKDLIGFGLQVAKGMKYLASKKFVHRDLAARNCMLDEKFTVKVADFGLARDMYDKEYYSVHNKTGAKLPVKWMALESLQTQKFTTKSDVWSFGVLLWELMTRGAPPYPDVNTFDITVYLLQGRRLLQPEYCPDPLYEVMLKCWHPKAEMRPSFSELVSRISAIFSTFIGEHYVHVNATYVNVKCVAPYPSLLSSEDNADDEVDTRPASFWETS
T4 sequence (P48729 whole entry): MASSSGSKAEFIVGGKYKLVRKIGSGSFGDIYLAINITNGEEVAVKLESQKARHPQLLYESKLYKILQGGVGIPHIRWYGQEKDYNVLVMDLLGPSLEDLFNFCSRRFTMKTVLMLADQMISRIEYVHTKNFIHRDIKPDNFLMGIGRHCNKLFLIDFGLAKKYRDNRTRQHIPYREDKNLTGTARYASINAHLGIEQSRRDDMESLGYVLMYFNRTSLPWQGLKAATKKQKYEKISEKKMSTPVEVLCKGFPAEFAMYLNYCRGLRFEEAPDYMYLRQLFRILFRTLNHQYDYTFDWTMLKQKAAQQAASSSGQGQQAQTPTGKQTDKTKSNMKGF

`COc1cc(C(=O)N2CCC(N3CCN(C)CC3)CC2)ccc1Nc1ncc2c(n1)N(C1CCCC1)c1ccccc1C(=O)N2C` [Compound 25, 11-cyclopentyl-2-((2-methoxy-4-(4-(4-methylpiperazin-1-yl)piperidine-1-carbonyl)phenyl)amino)-5-methyl-5H-benzo[e]pyrimido[5,4-b][1,4]diazepin-6(11H)-one] was tested, and the “% Inhibiton, CASK” value [1] was -0.2%, the “% Inhibiton, EGFR” value ([2]; peptide IPVAIkELR, labeling site Lys1) was -6.4% and the “% Inhibiton, EGFR” value ([2]; peptide ITDFGLAkLLGAEEK, labeling site Activation Loop) was -31.1%. For the same molecule, the “% Inhibiton, EGFR” value ([2]; peptide […]kVPIK, labeling site Activation Loop) was -10.1%, the “% Inhibiton, MET” value ([3]; peptide DMYDkEYYSVHNK) was -15.9% and the “% Inhibiton, MET” value ([3]; peptide […]kTGAK) was 4.8%. The “% Inhibiton, CK1a” value [4] was 9.4%, the “% Inhibition RSK2 domain1” value ([5]; RSK2 domain1, peptide LTDFGLSkESIDHEKK, proteome HEL, labeling site Activation Loop) was 1.2% and the “% Inhibition RSK2 domain2” value [5, 15] was -4.3%. The “% Inhibition RSK2 domain2” value ([5]; peptide Sk[…], proteome HEL, labeling site Protein Kinase Domain) was 1.3%, the “% Inhibition RSK2 domain2” value ([5]; peptide Sk[…], proteome PC3, labeling site Protein Kinase Domain) was 1.9% and the “% Inhibition PLK1” value [6] was 9.6%. For the same molecule, the “% Inhibiton, DMPK1” value [7] was 10.0%, the “% Inhibiton, MAP3K1” value [8] was 36.1% and the “% Inhibition RSK1 domain1” value [9] was 0.161%. The “% Inhibiton, AGK” value [10] was 1.8%, the “% Inhibition PIP4K2C” value ([11]; peptide ELPTLkDMDFLNK, proteome PC3) was 21.5% and the “% Inhibition PIP4K2C” value ([11]; peptide TLVIk[…], proteome HEL) was 9.5%. For the same molecule, the “% Inhibition PIP4K2C” value ([11]; peptide TLVIk[…], proteome PC3) was -0.123%, the “% Inhibiton, HPK1” value [12] was -8.3% and the “% Inhibition SLK” value ([13]; peptide DLk[…], proteome HEL, labeling site Lys2) was 10.4%. The “% Inhibition SLK” value [13, 15] was -11.4%, the “% Inhibition SLK” value ([13]; peptide ETSVLAAAkVIDTK, proteome PC3, labeling site Lys1) was -17.6% and the “% Inhibition PI4KA,PI4KAP2” value ([14]; proteome HEL) was 23.7%. For the same molecule, the “% Inhibition PI4KA,PI4KAP2” value ([14]; proteome PC3) was -7.2%, the “% Inhibition PKCa,PKCb” value ([14]; PKCa,PKCb, peptide DLk[…], proteome PC3, labeling site Lys2) was 16.4% and the “% Inhibition PKD1,PKD2” value ([14]; PKD1,PKD2, peptide NIVHCDLk[…], proteome HEL, labeling site Lys2) was -30.1%. For the same molecule, the “% Inhibition ROCK1,ROCK2” value ([14]; ROCK1,ROCK2, peptide DVkPDNMLLDK, proteome PC3, labeling site Lys2) was 5.7%, the “% Inhibition RSK1,RSK2 domain1” value ([14]; RSK1,RSK2 domain1, peptide DLk[…], proteome HEL, labeling site Lys2) was -6.2% and the “% Inhibition RSK1,RSK4 domain1” value ([14]; RSK1,RSK4 domain1, peptide VLGQGSFGkVFLVR, proteome HEL, labeling site ATP Loop) was -4.9%. The “% Inhibition SRPK1,SRPK2” value ([14]; SRPK1,SRPK2, peptide FVAMkVVK, proteome PC3, labeling site Lys1) was -2.0%, the “% Inhibition TAO1,TAO3” value [14, 16] was 21.0% and the “% Inhibition TAO1,TAO3” value [14, 17] was -5.2%. The “% Inhibition Wnk1,Wnk2,Wnk3” value ([14]; Wnk1,Wnk2,Wnk3, peptide DLk[…], proteome HEL, labeling site Lys2) was 9.6%, the “% Inhibition Wnk1,Wnk2,Wnk4” value ([14]; Wnk1,Wnk2,Wnk4, peptide IGDLGLATLkR, proteome PC3, labeling site Activation Loop) was -9.4% and the “% Inhibition ZC1/HGK,ZC2/TNIK,ZC3/MINK” value [14, 16] was 10.0%. The “% Inhibition ZC1/HGK,ZC2/TNIK,ZC3/MINK” value [14, 17] was -6.5%, the “% Inhibition p70S6K,p70S6Kb” value ([14]; p70S6K,p70S6Kb, peptide GGYGkVFQVR, proteome PC3, labeling site ATP Loop) was -1.5% and the “% Inhibiton, MAP3K2,MAP3K3” value [14, 18] was 14.4%. For the same molecule, the “% Inhibiton, IKKe,TBK1” value [14, 18] was 18.2%, the “% Inhibiton, NEK6,NEK7” value ([14]; proteome HEL, peptide DIk[…], labeling site Lys2) was 6.9% and the “% Inhibiton, JNK1,JNK2,JNK3” value [14, 18] was 33.5%. The “% Inhibiton, AMPKa1,AMPKa2” value [14, 19] was 9.6%, the “% Inhibiton, MARK2,MARK3” value [14, 19] was 9.5% and the “% Inhibiton, MAST2,MAST4” value [14, 19] was 28.2%. The “% Inhibiton, p38d,p38g” value [14, 19] was 12.3%, the “% Inhibiton, MAP2K1,MAP2K2” value [14, 18] was -0.9% and the “% Inhibiton, MYO3A,MYO3B” value ([14]; proteome HEL, peptide DVk[…], labeling site Lys2) was -3.3%. The “% Inhibiton, BMX,BTK” value ([14]; proteome HEL, peptide GQYDVAIkMIK, labeling site Lys1) was ~43.0%, the “% Inhibiton, MAP3K5,MAP3K6,MAP3K7” value ([14]; proteome HEL, peptide IAIkEIPERDSR, labeling site Lys1) was -4.3% and the “% Inhibiton, KSR1,KSR2” value ([14]; proteome HEL, peptide SkNVFYDNGK, labeling site Protein Kinase Domain) was 6.2%. For the same molecule, the “% Inhibiton, AMPKa1,AMPKa2” value ([14]; proteome HEL, peptide VAVkILNR, labeling site Lys1) was 10.9%, the “% Inhibiton, MSK1,MSK2 domain1” value ([14]; proteome HEL, peptide VLGTGAYGkVFLVR, labeling site ATP Loop) was -9.5% and the “% Inhibiton, ABL,ARG” value ([14]; proteome HEL, peptide […]kFPIK, labeling site Activation Loop) was 17.5%. The “% Inhibiton, MAP3K2,MAP3K3” value [14, 20] was -0.6%, the “% Inhibiton, IKKe,TBK1” value [14, 20] was 11.0% and the “% Inhibiton, MST1,MST2” value [14, 21] was 8.8%. For the same molecule, the “% Inhibiton, MST4,YSK1” value [14, 21] was 1.0%, the “% Inhibiton, NEK6,NEK7” value [14, 21] was -5.0% and the “% Inhibiton, CaMK2a,CaMK2b,CaMK2d,CaMK2g” value ([14]; proteome PC3, peptide DLkPENLLLASK, labeling site Lys2) was -1.1%. For the same molecule, the “% Inhibiton, JNK1,JNK2,JNK3” value [14, 20] was 30.3%, the “% Inhibiton, AMPKa1,AMPKa2” value [14, 22] was 16.4% and the “% Inhibiton, CDK11,CDK8” value [14, 22] was 8.9%. For the same molecule, the “% Inhibiton, MARK2,MARK3” value [14, 22] was 11.6%, the “% Inhibiton, p38d,p38g” value [14, 22] was -6.8% and the “% Inhibiton, MAP2K1,MAP2K2” value [14, 20] was -0.2%. For the same molecule, the “% Inhibiton, CK1d,CK1e” value ([14]; proteome PC3, peptide DVk[…], labeling site Lys2) was -16.9%, the “% Inhibiton, MARK3,MARK4” value ([14]; proteome PC3, peptide EVAIkIIDK, labeling site Lys1) was -5.2% and the “% Inhibiton, FYN,SRC,YES” value ([14]; proteome PC3, peptide QGAk[…], labeling site Activation Loop) was -32.2%. For the same molecule, the “% Inhibiton, AMPKa1,AMPKa2” value ([14]; proteome PC3, peptide VAVkILNR, labeling site Lys1) was 14.9%.

Source: PMC3914206
